Data set [1] relates to E. multilocularis metacestode vesicles. Briefly: Phosphoglucose isomerase (PGI) release assay (damage-marker release) on metacestode vesicles. The data set is classed as cell-based, Echinococcus multilocularis. As to conditions: 10 μM; for PGI d5 (relative PGI release): 5 days; for PGI d12 (relative PGI release): 12 days.
Data set [2] shares this test system. Briefly: Metacestode vesicle viability assay (ATP, CellTiter-Glo). The format is cell-based, Echinococcus multilocularis. As to conditions: 10 μM, 12 days. As to the method: Viability was assessed after 12 days using the same metacestode vesicles as for the PGI release assay. Triton X-100 was added to each well to a final concentration of 0.1 %. Subsequently the metacestode vesicles were broken mechanically and 50 μL of the supernatant was mixed with 50 μL of CellTiter-Glo® buffer (Promega, Dübendorf, Switzerland). Measurements were performed on a HIDEX Sense microplate reader.
A general note: ATP-based viability assays read luminescence as a measure of living cells.

Setting [3] is: confirmation screen, triplicates, mean.
Setting [4] is: overview screen, singlets, relative to 0.1 % Triton X-100, DMSO subtracted.
Where [5] appears, read: overview screen, singlets, relative to DMSO control.

Consider `O=C(Nc1cccc(C2=NCCN2)c1)c1ccc(-c2ccc(C(=O)Nc3cccc(C4=NCCN4)c3)cc2)cc1` [MMV1580853], for which the “PGI d5 (relative PGI release)” value in data set [1] (setting [3]) is -0.08%; in data set [1] (setting [4]), 0.237%. For the same compound, the results for the “PGI d12 (relative PGI release)” value in data set [1] (setting [3]) and in data set [1] (setting [4]) were 7.37% and 89.997%, respectively. Besides, the figures for the “Viability d12 (relative viability)” value in data set [2] (setting [3]) and in data set [2] (setting [5]) were 134.53% and 3.841%, respectively.

As for `CCCCc1ccc(S(=O)(=O)Nc2cc(C)on2)cc1` [MMV1782108], in data set [1] (setting [4]), the “PGI d5 (relative PGI release)” value was -2.561% and the “PGI d12 (relative PGI release)” value is recorded as -24.5808%. In addition, the “Viability d12 (relative viability)” value in data set [2] (setting [5]) came out at 50.3487%.

In the case of `CCC[C@H](NC(=O)[C@@H]1[C@H]2CCC[C@H]2CN1C(=O)[C@@H](NC(=O)[C@@H](NC(=O)c1cnccn1)C1CCCCC1)C(C)(C)C)C(=O)C(=O)NC1CC1` [MMV1580494], in data set [1] (setting [4]), the “PGI d5 (relative PGI release)” value was found to be 0.1247% and the “PGI d12 (relative PGI release)” value was -0.8271%. Moreover, in data set [2] (setting [5]), the “Viability d12 (relative viability)” value came out at 83.9614%.

For `O=C1NC(=S)N/C1=C\c1cc(Br)cc(Br)c1O` [MMV1578569], in data set [1] (setting [4]), the “PGI d5 (relative PGI release)” value is reported as 1.516% and the “PGI d12 (relative PGI release)” value is given as -5.575%. In data set [2] (setting [5]), the “Viability d12 (relative viability)” value was 64.4597%.

In the case of `O=c1nc(N2CCN(CC3CCCCC3)CC2)sc2c([N+](=O)[O-])cc(C(F)(F)F)cc12` [MMV1578885], the “PGI d5 (relative PGI release)” value in data set [1] (setting [3]) is listed as -0.21%; in data set [1] (setting [4]), 15.7367%. Besides, the “PGI d12 (relative PGI release)” value in data set [1] (setting [3]) was determined as 0.0323%; in data set [1] (setting [4]) it was 89.9274%. The “Viability d12 (relative viability)” value in data set [2] (setting [3]) is given as 97.20%; in data set [2] (setting [5]), 20.6104%.

Regarding `CN1CCN(Cc2ccc(-c3cnc4[nH]cc(-c5ccc6[nH]ccc6c5)c4c3)cc2)CC1` [MMV1580482], in data set [1] (setting [4]), the “PGI d5 (relative PGI release)” value turned out to be 0.2177% and the “PGI d12 (relative PGI release)” value was determined as 0.07079%. In addition, the “Viability d12 (relative viability)” value in data set [2] (setting [5]) is listed as 108.591%.

As for `CCC(C)NCC(O)Cn1c2ccc(Cl)cc2c2cc(Cl)ccc21` (stereo not drawn) [MMV1578570], the “PGI d5 (relative PGI release)” value was -0.08% in data set [1] (setting [3]) and 90.467% in data set [1] (setting [4]). Moreover, the “PGI d12 (relative PGI release)” value in data set [1] (setting [3]) was found to be 0.27%; in data set [1] (setting [4]), 70.4859%. Also, the “Viability d12 (relative viability)” value in data set [2] (setting [3]) is given as 94.06%; in data set [2] (setting [5]) it was 22.9025%.

Turning to `COc1cc(Cc2cnc(N)nc2N)c2c(c1OC)OC(C1CC1)C=C2` (stereo not drawn) [MMV1613563], in data set [1] (setting [4]), the “PGI d5 (relative PGI release)” value is reported as -0.539% and the “PGI d12 (relative PGI release)” value was -1.956%. Besides, in data set [2] (setting [5]), the “Viability d12 (relative viability)” value is given as 145.38%.

Consider `O=S(=O)(Nc1cccc2cccnc12)c1ccccc1` [MMV1578890], for which the “PGI d5 (relative PGI release)” value in data set [1] (setting [3]) is 0.50%; in data set [1] (setting [4]), 53.5139%. In addition, the “PGI d12 (relative PGI release)” value in data set [1] (setting [3]) is reported as -0.0456%; in data set [1] (setting [4]), 49.7638%. The “Viability d12 (relative viability)” value in data set [2] (setting [3]) turned out to be 68.64%; in data set [2] (setting [5]) it was 2.254%.

In the case of `CC(C)n1cnc2c(NCc3ccccc3)nc(NCc3ccccc3)nc21` [MMV1579780], in data set [1] (setting [4]), the “PGI d5 (relative PGI release)” value came to 13.6684% and the “PGI d12 (relative PGI release)” value turned out to be 58.0803%. Besides, the “Viability d12 (relative viability)” value in data set [2] (setting [5]) is reported as 34.6202%.

Take `Cl.Nc1nc(-c2ccccc2)nc2c1ncn2[C@@H]1O[C@H](COS(=O)(=O)NC(=O)c2ccccc2O)[C@@H](O)[C@H]1O` [MMV1582488]: in data set [1] (setting [4]), the “PGI d5 (relative PGI release)” value is on record as -1.401% and the “PGI d12 (relative PGI release)” value was 11.4821%. In addition, the “Viability d12 (relative viability)” value in data set [2] (setting [5]) was determined as 117.234%.

For `Cc1c(N)cccc1Cn1ccc(OCCc2cccs2)cc1=O` [MMV1578557], in data set [1] (setting [4]), the “PGI d5 (relative PGI release)” value is recorded as -0.9531% and the “PGI d12 (relative PGI release)” value is -14.0356%. Also, the “Viability d12 (relative viability)” value in data set [2] (setting [5]) is listed as 70.6385%.

`O=C(NCCN1CCCCC1)c1cccc(C(F)(F)F)c1` [MMV1633964]: in data set [1] (setting [4]), the “PGI d5 (relative PGI release)” value was 0.4856% and the “PGI d12 (relative PGI release)” value is given as -18.3006%. Besides, the “Viability d12 (relative viability)” value in data set [2] (setting [5]) was found to be 94.8358%.

Source of the values: article PMC12410356 (International Journal for Parasitology: Drugs and Drug …, 2025).
